± gives the expanded uncertainty stated by the source.
Test: xn = mol fraction of the nth substance listed
Settings: 101 kPa, Liquid, Voltage change across transformer (no electrode)

CCCC[n+]1cccc(C)c1.F[B-](F)(F)F [1-butyl-3-methylpyridinium tetrafluoroborate] + CCO
electrical conductivity [S/m]
Settings | 293.15 K | 303.15 K | 313.15 K | 323.15 K
x1 = 0.0613 | 0.787 ± 0.032 | 1.02 ± 0.041 | 1.26 ± 0.05 | 1.53 ± 0.061
x1 = 0.0737 | 0.888 ± 0.036 | 1.14 ± 0.046 | 1.42 ± 0.057 | 1.72 ± 0.069
x1 = 0.0915 | 1.02 ± 0.041 | 1.31 ± 0.053 | 1.63 ± 0.065 | 1.96 ± 0.078
x1 = 0.1113 | 1.14 ± 0.046 | 1.48 ± 0.059 | 1.84 ± 0.074 | 2.19 ± 0.09
x1 = 0.1366 | 1.24 ± 0.05 | 1.63 ± 0.065 | 2.04 ± 0.08 | 2.43 ± 0.1
x1 = 0.167 | 1.4 ± 0.056 | 1.81 ± 0.073 | 2.22 ± 0.09 | 2.68 ± 0.11
x1 = 0.1985 | 1.47 ± 0.059 | 1.92 ± 0.077 | 2.36 ± 0.09 | 2.81 ± 0.11
x1 = 0.2393 | 1.52 ± 0.061 | 1.97 ± 0.079 | 2.4 ± 0.1 | 2.89 ± 0.12
x1 = 0.2811 | 1.5 ± 0.06 | 1.96 ± 0.079 | 2.4 ± 0.1 | 2.89 ± 0.12
x1 = 0.3174 | 1.41 ± 0.056 | 1.85 ± 0.074 | 2.31 ± 0.09 | 2.85 ± 0.11
x1 = 0.3652 | 1.32 ± 0.053 | 1.76 ± 0.07 | 2.24 ± 0.09 | 2.76 ± 0.11
x1 = 0.4385 | 1.19 ± 0.048 | 1.61 ± 0.064 | 2.11 ± 0.08 | 2.54 ± 0.1
x1 = 0.4652 | 1.09 ± 0.044 | 1.49 ± 0.059 | 1.92 ± 0.077 | 2.45 ± 0.1
x1 = 0.5281 | 0.934 ± 0.037 | 1.28 ± 0.051 | 1.68 ± 0.067 | 2.21 ± 0.09
x1 = 0.5747 | 0.823 ± 0.033 | 1.17 ± 0.047 | 1.56 ± 0.063 | 2.04 ± 0.08
x1 = 0.6938 | 0.51 ± 0.02 | 0.77 ± 0.031 | 1.15 ± 0.046 | 1.63 ± 0.065
x1 = 0.7799 | 0.37 ± 0.015 | 0.56 ± 0.022 | 0.891 ± 0.036 | 1.33 ± 0.053
x1 = 0.9102 | 0.215 ± 0.009 | 0.36 ± 0.014 | 0.59 ± 0.024 | 0.903 ± 0.036
x1 = 1 | 0.155 ± 0.0062 | 0.281 ± 0.011 | 0.461 ± 0.018 | 0.704 ± 0.028

CCCC[n+]1ccc(C)cc1.F[B-](F)(F)F [1-butyl-4-methylpyridinium tetrafluoroborate] + CO
electrical conductivity [S/m]
Settings | 293.15 K | 303.15 K | 313.15 K | 323.15 K
x1 = 0.0426 | 2.81 ± 0.11 | 3.25 ± 0.13 | 3.55 ± 0.14 | 4.09 ± 0.16
x1 = 0.0499 | 2.99 ± 0.12 | 3.46 ± 0.14 | 3.93 ± 0.16 | 4.37 ± 0.18
x1 = 0.0584 | 3.18 ± 0.13 | 3.71 ± 0.15 | 4.17 ± 0.17 | 4.65 ± 0.19
x1 = 0.0716 | 3.38 ± 0.14 | 3.99 ± 0.16 | 4.56 ± 0.18 | 5.02 ± 0.2
x1 = 0.0898 | 3.58 ± 0.14 | 4.25 ± 0.17 | 4.82 ± 0.19 | 5.4 ± 0.22
x1 = 0.1093 | 3.72 ± 0.15 | 4.43 ± 0.18 | 5.08 ± 0.2 | 5.67 ± 0.23
x1 = 0.1256 | 3.76 ± 0.15 | 4.52 ± 0.18 | 5.2 ± 0.21 | 5.82 ± 0.23
x1 = 0.1425 | 3.78 ± 0.15 | 4.56 ± 0.18 | 5.27 ± 0.21 | 5.92 ± 0.24
x1 = 0.2197 | 3.47 ± 0.14 | 4.38 ± 0.18 | 5.15 ± 0.21 | 5.85 ± 0.23
x1 = 0.2475 | 3.31 ± 0.13 | 4.22 ± 0.17 | 5 ± 0.2 | 5.7 ± 0.23
x1 = 0.305 | 3.13 ± 0.13 | 3.84 ± 0.15 | 4.61 ± 0.18 | 5.27 ± 0.21
x1 = 0.3465 | 2.81 ± 0.11 | 3.53 ± 0.14 | 4.27 ± 0.17 | 4.9 ± 0.2
x1 = 0.4593 | 2.18 ± 0.09 | 2.68 ± 0.11 | 3.3 ± 0.13 | 3.83 ± 0.15
x1 = 0.5657 | 1.42 ± 0.057 | 1.93 ± 0.077 | 2.47 ± 0.1 | 2.85 ± 0.11
x1 = 0.6744 | 0.993 ± 0.04 | 1.28 ± 0.051 | 1.71 ± 0.07 | 1.99 ± 0.08
x1 = 0.7908 | 0.565 ± 0.023 | 0.761 ± 0.03 | 1.12 ± 0.045 | 1.29 ± 0.051
x1 = 0.8788 | 0.341 ± 0.014 | 0.487 ± 0.019 | 0.78 ± 0.031 | 0.925 ± 0.037
x1 = 1 | 0.132 ± 0.0053 | 0.254 ± 0.01 | 0.439 ± 0.018 | 0.687 ± 0.027

Source: the NIST ThermoML archive (doi:10.1021/je301347v)
